The source of these data is US10047059B2, “Substituted quinoxalines for inhibiting kinase activity” (NEUPHARMA, INC., priority 2012, dated 2018).

A value given as a limit tells only on which side of the number the result lay.

One assay concerns the target T1, BRAF V600E (Homo sapiens, UniProt P15056, V600E).
T1 construct: purchased Invitrogen
Briefly: Z'-LYTE kinase inhibition assay against BRAF V600E. Type of assay: biochemical. To be noted: Z'-LYTE method. As to the method:
(§1) Inhibitory activities Inhibitory activities of compounds against BRAF, and BRAF V600E were measured by Invitrogen using Z′-LYTE® Method as briefly described in the following. 4× Test compounds are dissolved in 1% DMSO. […] ATP solutions are diluted to a 4×ATP working concentration in Kinase Buffer (50 mM HEPES pH 7.5, 0.01% BRIJ-35, 10 mM MgCl2, 1 mM EGTA). Reaction started by 30-second shaking of mixture consisting of 2.5 μL 4× test compound, […] and 2.5 μL 4×ATP Solution on Bar-coded Corning, low volume NBS, black 384-well plate (Corning Cat. #3676). Then the mixture was incubated for 60-minute at room temperature for the kinase reaction, followed by addition of 5 μL of a 1:1024 dilution of development reagent A and 30-second plate shake. The mixture was then incubated for another 60-minute at room temperature for development reaction. Fluorescence was read by plate reader. IC50 was calculated by plotting the concentration of compound vs the percentage of inhibition in treated wells using GraphPad Prism 5.
(§2) Table 2 and 3 show % inhibition at 1 μM of several compounds of the invention against BRAF and BRAF V600E, respectively, using Z′-LYTE® method.
The scale utilized in Table 4 is as follows: +++ less than 100 nM; and ++ greater than 100 nM.

The subject of another assay is A375 cells. Briefly: Inhibition of cancer cell growth, MTT or MTS assay, A375. Type of assay: cell-based. The note with it: Homo sapiens, A-375, 72 h incubation. The method, then:
(§3) Inhibition of cell growth by compounds was measured using MTT or MTS assay. Tumor cell lines were purchased from ATCC (American Type Culture Collection, Manassas, Va.). All cell lines were maintained in RPMI 1640 (Hyclone) supplemented with 10% fetal bovine serum (FBS, Hyclone), glutamine (2 mM, Hyclone), and antibiotics (penicillin 100 U/mL and streptomycin 50 μg/mL) at 37° C. in a humidified atmosphere of 5% CO2 in air. Taxol (as a positive control, Sigma) and compounds were dissolved in DMSO (Sigma), and the final concentration of DMSO in the medium was 1%. Tumor cells were plated in 96-well plates at densities of about 2000 (A375) or 4000 (A549 and Colo205) cells/well of a 96-well plate and allowed to adhere/grow for 24 h. They were then treated with various concentrations of drug and incubated for 72 h. For MTT method, medium was then removed by inverting and tapping the plates. 100 μL of MTT (0.5 mg/ml) was added to each well followed by an incubated at 37° C. for 4 h. MTT was then removed and 200 μL of DMSO was added to each well, and the ODs at 570 nm were measured after a 5 second shaking cycle in a 96-well spectrophotometer. For MTS method, 20 μL MTS (CellTiter 96 Aqueous One Solution, Promega) was added to each well followed by an incubated at 37° C. for 2-4 h, solutions were then directly put in a 96-well spectrophotometer, and the ODs at 490 nm were measured.
(§4) All concentrations of compounds were tested in triplicate and controls were averaged over 4 wells. IC50 was calculated by plotting the concentration of compound vs the percentage of inhibition in treated wells using GraphPad Prism 5. […] The scale utilized in Tables 7-9 is as follows: +++ less than 1000 nM; ++ between 1000 nM and 5000 nM; and + greater than 5000 nM. The scale utilized in […]
For orientation: Tetrazolium dyes change colour on reduction, which living cells bring about.

For another assay, the system named is A549 cells. Briefly: Inhibition of cancer cell growth, MTT or MTS assay, A549. It counts as cell-based. To be noted: Homo sapiens, 72 h incubation. As to the method: as §3, §4
The target in the next assay is T2, BRAF (Homo sapiens, UniProt P15056).
T2 construct: purchased Invitrogen
T2 sequence (P15056 whole entry): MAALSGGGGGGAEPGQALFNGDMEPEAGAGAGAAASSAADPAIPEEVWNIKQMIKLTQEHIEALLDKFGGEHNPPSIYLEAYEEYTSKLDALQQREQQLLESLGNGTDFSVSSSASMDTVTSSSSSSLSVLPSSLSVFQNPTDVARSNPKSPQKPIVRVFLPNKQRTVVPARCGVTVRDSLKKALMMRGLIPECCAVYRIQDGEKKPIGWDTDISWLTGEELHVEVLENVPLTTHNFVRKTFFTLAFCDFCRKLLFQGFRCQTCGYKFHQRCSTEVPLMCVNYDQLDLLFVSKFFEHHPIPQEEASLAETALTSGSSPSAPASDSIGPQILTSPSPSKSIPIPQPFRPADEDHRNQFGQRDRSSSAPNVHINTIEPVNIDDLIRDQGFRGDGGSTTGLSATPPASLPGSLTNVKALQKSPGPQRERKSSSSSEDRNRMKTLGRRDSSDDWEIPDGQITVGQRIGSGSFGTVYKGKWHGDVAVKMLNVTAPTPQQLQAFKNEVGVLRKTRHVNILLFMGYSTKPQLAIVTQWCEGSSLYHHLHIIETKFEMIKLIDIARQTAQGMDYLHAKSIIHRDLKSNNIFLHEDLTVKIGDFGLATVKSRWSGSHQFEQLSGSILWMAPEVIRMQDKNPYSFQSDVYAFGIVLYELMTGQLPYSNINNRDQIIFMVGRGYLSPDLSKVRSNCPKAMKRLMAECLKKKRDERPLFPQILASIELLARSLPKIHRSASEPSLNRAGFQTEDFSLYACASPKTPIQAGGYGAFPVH
Briefly: Z'-LYTE kinase inhibition assay against BRAF. To be noted: Z'-LYTE method. It counts as biochemical. The method, then: as §1, §2

For another assay, the system named is Colo205 cells. Briefly: Inhibition of cancer cell growth, MTT or MTS assay, Colo205. It counts as cell-based. The note with it: Homo sapiens, COLO 205, 72 h incubation. As to the method: as §3, §4
A further assay addresses T3, KDR (VEGFR2) (Homo sapiens, UniProt P35968).
T3 construct: purchased Invitrogen
In words: Z'-LYTE kinase inhibition assay against KDR. Type of assay: biochemical. To be noted: Z'-LYTE method. As to the method: Inhibitory activities of compounds against KDR (VEGFR2) were also measured by Invitrogen using Z′-LYTE® Method as described above with the following modification. The 2×KDR (VEGFR2)/Tyr 01 mixture is prepared in 50 mM HEPES pH 7.5, 0.01% BRIJ-35, 10 mM MgCl2, 1 mM EGTA. The final 10 μL Kinase Reaction consists of 0.5-11.7 ng KDR (VEGFR2) and 2 μM Tyr 01 in 50 mM HEPES pH 7.5, 0.01% BRIJ-35, 10 mM MgCl2, 1 mM EGTA. After the 1 hour Kinase Reaction incubation, 5 μL of a 1:256 dilution of Development Reagent B is added.
The scale utilized in Table 6 is as follows: +++ less than 100 nM; and ++ greater than 100 nM

In a further assay the test system is Colo205 tumor xenograft. In words: Inhibition of tumor growth in Colo205 tumor xenograft model. It counts as in vivo, BALB/c female nude mice. To be noted: 30 mg/kg, qd X 21, i.p. The method, then:
Cells were implanted in BALB/c female nude mice and grown as tumor xenografts. When tumors achieved 150-250 mm^3, mice were assigned into treatment and control groups using randomized block design based upon their tumor volumes. Each group contained 6 tumor-bearing mice. Tumors were measured twice weekly in two dimensions using a caliper, and the tumor volume was calculated from two-dimensional measurements using the equation V=0.5×a×b^2 where a and b are the long and short diameters of the tumor, respectively. Relative tumor volume (RTV) was defined as TVt/TVi, the ratio of the volume on a given day (TVt) and the volume at the start of treatment (TVi). Relative tumor growth rate (T/C) was defined as RTVT/RTVC, the ratio of relative tumor volume of treatment group (RTVT) and relative tumor volume of control group (RTVC) on a given day. Inhibition of tumor growth in a Colo205 tumor xenograft model is shown below in Table 10 for compound C14.

T1 sequence (P15056 whole entry V600E): as the sequence (P15056 whole entry) above, with V600E counted along it
T3 sequence (P35968 20-1356): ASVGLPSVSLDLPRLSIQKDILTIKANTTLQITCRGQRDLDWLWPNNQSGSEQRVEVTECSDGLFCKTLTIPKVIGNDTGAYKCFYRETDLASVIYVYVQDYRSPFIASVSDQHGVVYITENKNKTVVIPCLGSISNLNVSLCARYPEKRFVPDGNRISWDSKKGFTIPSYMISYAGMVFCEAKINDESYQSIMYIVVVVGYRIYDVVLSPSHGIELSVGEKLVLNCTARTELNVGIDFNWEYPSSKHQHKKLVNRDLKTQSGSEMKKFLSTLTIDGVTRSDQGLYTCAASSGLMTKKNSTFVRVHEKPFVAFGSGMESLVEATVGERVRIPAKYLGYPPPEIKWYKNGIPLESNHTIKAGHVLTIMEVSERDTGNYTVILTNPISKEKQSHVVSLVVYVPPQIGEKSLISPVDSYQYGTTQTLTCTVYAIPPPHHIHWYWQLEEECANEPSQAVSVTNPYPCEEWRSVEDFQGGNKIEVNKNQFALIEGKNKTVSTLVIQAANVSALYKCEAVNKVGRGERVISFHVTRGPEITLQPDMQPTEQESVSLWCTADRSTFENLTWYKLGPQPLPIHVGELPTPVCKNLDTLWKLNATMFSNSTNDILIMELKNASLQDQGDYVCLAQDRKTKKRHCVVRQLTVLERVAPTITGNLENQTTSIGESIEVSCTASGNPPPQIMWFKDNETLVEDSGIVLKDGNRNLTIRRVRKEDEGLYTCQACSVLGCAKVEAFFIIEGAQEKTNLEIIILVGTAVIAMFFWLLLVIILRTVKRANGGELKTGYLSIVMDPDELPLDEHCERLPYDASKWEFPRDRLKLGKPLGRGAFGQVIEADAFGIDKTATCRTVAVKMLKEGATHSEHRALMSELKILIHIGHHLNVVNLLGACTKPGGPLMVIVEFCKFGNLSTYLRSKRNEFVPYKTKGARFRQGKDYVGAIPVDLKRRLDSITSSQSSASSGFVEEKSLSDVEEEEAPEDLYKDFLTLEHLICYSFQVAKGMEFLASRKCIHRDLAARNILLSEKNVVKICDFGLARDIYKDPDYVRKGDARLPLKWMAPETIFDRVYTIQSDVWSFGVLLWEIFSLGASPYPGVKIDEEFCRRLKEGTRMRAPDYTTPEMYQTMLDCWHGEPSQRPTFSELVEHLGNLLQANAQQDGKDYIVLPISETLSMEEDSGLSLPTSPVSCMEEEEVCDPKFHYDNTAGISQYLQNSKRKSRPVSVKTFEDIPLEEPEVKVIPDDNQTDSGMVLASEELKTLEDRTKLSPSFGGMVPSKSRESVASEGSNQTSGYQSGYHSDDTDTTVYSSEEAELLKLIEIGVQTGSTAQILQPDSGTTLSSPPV

One may read the inhibition as the change of the read-out against control, counted positive when it falls. Low values mean a weak effect, high ones a strong effect. As a reminder, the IC50 is the midpoint of a concentration-inhibition curve. Read a high IC50 as weaker potency. Regarding `O=C(Nc1ccc(C(=O)c2ccc3ncc(N4CCNCC4)nc3c2)cc1)Nc1cccc(Cl)c1` [Compound C11, 1-(3-chlorophenyl)-3-(4-(3-(piperazin-1-yl)quinoxaline-6-carbonyl)phenyl)urea], the figures for the inhibition at 1 µM at BRAF V600E, against BRAF and at KDR (VEGFR2) were over 89%, 70 to 89% and 70 to 89%, respectively. Further, the IC50 in the assay with A375 cells was 1000 to 5000 nM; with A549 cells, 1000 to 5000 nM; with Colo205 cells, under 1000 nM; at KDR (VEGFR2), over 100 nM.

On to `O=C(Nc1ccc(Cl)cc1)Nc1ccc(C(=O)c2ccc3ncc(N4CCNCC4)nc3c2)cc1` [Compound C09, 1-(4-chlorophenyl)-3-(4-(3-(piperazin-1-yl)quinoxaline-6-carbonyl)phenyl)urea], for which the inhibition at 1 µM is over 89% against BRAF V600E, 70 to 89% at BRAF and under 70% at KDR (VEGFR2). The IC50 with A375 cells, in the assay on A549 cells and with Colo205 cells was 1000 to 5000 nM throughout.

Take `O=C(Nc1cccc(C(F)(F)F)c1)Nc1ccc(C(=O)c2ccc3ncc(N4CCNCC4)nc3c2)c(F)c1` [Compound C21, 1-(3-fluoro-4-(3-(piperazin-1-yl)quinoxaline-6-carbonyl)phenyl)-3-(3-(trifluoromethyl)phenyl)urea]: the inhibition at 1 µM is over 89% at BRAF V600E, under 70% against BRAF and over 89% against KDR (VEGFR2). Moreover, the IC50 is under 1000 nM with A375 cells, under 1000 nM in the assay with A549 cells, 1000 to 5000 nM in the assay on Colo205 cells and under 100 nM against KDR (VEGFR2).

Regarding `O=C(Nc1ccc(C(=O)c2ccc3nccnc3c2)cc1)Nc1cccc(C(F)(F)F)c1` [Compound C01, 1-(4-(quinoxaline-6-carbonyl)phenyl)-3-(3-(trifluoromethyl)phenyl)urea], the values for the inhibition at 1 µM on BRAF V600E, against BRAF and against KDR (VEGFR2) were over 89%, under 70% and under 70%, respectively. Further, the IC50 was 1000 to 5000 nM in the assay with A375 cells, over 5000 nM in the assay with A549 cells and over 5000 nM with Colo205 cells.

Regarding `O=C(Nc1ccc(C(=O)c2ccc3ncc(N4CCNCC4)nc3c2)cc1)Nc1cccc(C(F)(F)F)c1` [Compound C17, 1-(4-(3-(piperazin-1-yl)quinoxaline-6-carbonyl)phenyl)-3-(3-(trifluoromethyl)phenyl)urea], the inhibition at 1 µM at BRAF V600E was over 89%; against BRAF, under 70%; on KDR (VEGFR2), 70 to 89%. Further, the IC50 on BRAF V600E is under 100 nM; in the assay with A375 cells, under 1000 nM; in the assay on A549 cells it was under 1000 nM; in the assay with Colo205 cells it was 1000 to 5000 nM; at KDR (VEGFR2) it was under 100 nM.

Regarding `N#Cc1ccc(NC(=O)Nc2ccc(C(=O)c3ccc4ncc(N5CCNCC5)nc4c3)cc2)cc1C(F)(F)F` [Compound C16, 1-(4-cyano-3-(trifluoromethyl)phenyl)-3-(4-(3-(piperazin-1-yl)quinoxaline-6-carbonyl)phenyl)urea], the inhibition at 1 µM against BRAF V600E was over 89%; against BRAF, under 70%; against KDR (VEGFR2), over 89%. The IC50 with A375 cells was under 1000 nM; in the assay on A549 cells, 1000 to 5000 nM; in the assay on Colo205 cells it was over 5000 nM; against KDR (VEGFR2), over 100 nM.

Take `O=C(Nc1ccc(C(=O)c2ccc3ncc(N4CCNCC4)nc3c2)cc1)Nc1ccc(F)c(C(F)(F)F)c1` [Compound C14, 1-(4-fluoro-3-(trifluoromethyl)phenyl)-3-(4-(3-(piperazin-1-yl)quinoxaline-6-carbonyl)phenyl)urea]: the figures for the inhibition at 1 µM on BRAF V600E, against BRAF and against KDR (VEGFR2) were over 89%, under 70% and over 89%, respectively. In addition, the 50% inhibitory concentration (IC50) was over 100 nM against BRAF V600E; under 1000 nM in the assay on A375 cells; under 1000 nM in the assay with A549 cells; under 1000 nM in the assay on Colo205 cells; over 100 nM at KDR (VEGFR2). The “T/C (relative tumor growth rate)” value in the assay on Colo205 tumor xenograft worked out at 65%. In addition, the “Tumor Volume Post-treatment” value in the assay with Colo205 tumor xenograft was 1016 mm3. Also, the “Tumor Volume Pre-treatment” value in the assay on Colo205 tumor xenograft (baseline) is listed as 233 mm3.
